Data as given in US11214803B2, “Modulators of YAP1 expression” (Ionis Pharmaceuticals, Inc., priority 2019, dated 2022).
Strand notation (5' to 3'): a small letter for the sugar, then the base; units joined by * are phosphorothioate-linked, units joined directly phosphodiester-linked; [ ] holds rarer units or linkages, { } end groups; capitals alone tell only the bases. k = constrained ethyl (cEt); [5mC] = 5-methylcytosine; d = 2'-deoxy (DNA)

System: Yap1 mRNA
Assay: Dose-dependent inhibition of human Yap1 in A-431 cells (Example 7, 10,000 cells per well, RTS36584)
Format: cell-based
Details: free uptake
Description: Modified oligonucleotides described in the studies above were tested at various doses in A-431 cells. Cultured A-431 cells at a density of 10,000 cells per well were treated using free uptake with modified oligonucleotides diluted to concentrations described in the tables below. After approximately 48 hours, Yap1 mRNA levels were measured as previously described using the Human Yap1 primer-probe set RTS36584. Yap1 mRNA levels were normalized to total RNA content, as measured by RIBOGREEN®. Results are presented in the tables below as percent control of the amount of Yap1 mRNA relative to untreated control cells (% UTC). IC50s were calculated using a linear regression on a log/linear plot of the data in excel.

[1] = Table 60, 15.6 nM, A-431 cells 10,000 cells per well, 48 hours
[2] = Table 60, 62.5 nM, A-431 cells 10,000 cells per well, 48 hours
[3] = Table 60, 4000.00 nM, A-431 cells 10,000 cells per well, 48 hours
[4] = Table 60, A-431 cells 10,000 cells per well
[5] = Table 58, 15.6 nM, A-431 cells 10,000 cells per well, 48 hours
[6] = Table 58, 62.5 nM, A-431 cells 10,000 cells per well, 48 hours
[7] = Table 58, 4000.00 nM, A-431 cells 10,000 cells per well, 48 hours
[8] = Table 58, A-431 cells 10,000 cells per well
[9] = Table 56, 15.6 nM, A-431 cells 10,000 cells per well, 48 hours
[10] = Table 56, 62.5 nM, A-431 cells 10,000 cells per well, 48 hours
[11] = Table 56, 4000.00 nM, A-431 cells 10,000 cells per well, 48 hours
[12] = Table 56, A-431 cells 10,000 cells per well
[13] = 15.6 nM, A-431 cells, 10,000 cells per well, approximately 48 hours
[14] = 62.5 nM, A-431 cells, 10,000 cells per well, approximately 48 hours
[15] = 4000.00 nM, A-431 cells, 10,000 cells per well, approximately 48 hours
[16] = A-431 cells, approximately 48 hours, linear regression on log/linear plot

958523 (kT*kT*k[5mC]*d[5mC]*dA*dA*dT*d[5mC]*dG*dA*dG*dA*d[5mC]*kT*kT*kA; antisense) [compound 958523]
Yap1 mRNA, % UTC [1]: 86 % UTC
Yap1 mRNA, % UTC [2]: 64 % UTC
Yap1 mRNA, % UTC [3]: 12 % UTC
IC50 [4]: 100 nM

958457 (antisense kG*kT*k[5mC]*dG*dA*dA*dG*dA*dT*dG*d[5mC]*dT*dG*kA*kG*k[5mC]) [compound 958457]
Yap1 mRNA, % UTC [5]: 91 % UTC
Yap1 mRNA, % UTC [6]: 50 % UTC
Yap1 mRNA, % UTC [7]: 13 % UTC
IC50 [8]: 100 nM

958597 (k[5mC]*k[5mC]*k[5mC]*dA*dA*dT*dA*d[5mC]*dA*dA*d[5mC]*d[5mC]*dA*kA*kG*kA; antisense) [compound 958597]
Yap1 mRNA, % UTC (Table 59, 15.6 nM, A-431 cells 10,000 cells per well, 48 hours): 104 % UTC
Yap1 mRNA, % UTC (Table 59, 62.5 nM, A-431 cells 10,000 cells per well, 48 hours): 46 % UTC
Yap1 mRNA, % UTC (Table 59, 4000.00 nM, A-431 cells 10,000 cells per well, 48 hours): 20 % UTC
IC50 (Table 59, A-431 cells 10,000 cells per well): 200 nM

958726 (k[5mC]*kT*kG*dT*d[5mC]*dA*dG*dT*dT*dA*dT*d[5mC]*d[5mC]*kT*kA*kT; antisense) [compound 958726]
Yap1 mRNA, % UTC [9]: 99 % UTC
Yap1 mRNA, % UTC [10]: 70 % UTC
Yap1 mRNA, % UTC [11]: 16 % UTC
IC50 [12]: 170 nM

958505 (kG*kA*kT*dA*dA*dT*d[5mC]*dG*dA*dG*dA*dT*dT*kT*kA*kA; antisense) [compound 958505]
Yap1 mRNA, % UTC [13]: 81 % UTC
Yap1 mRNA, % UTC [14]: 72 % UTC
Yap1 mRNA, % UTC [15]: 21 % UTC
IC50 [16]: 200 nM

958538 (kA*kT*k[5mC]*d[5mC]*dA*dG*dG*dG*dT*d[5mC]*dA*dA*dT*kT*kT*kT; antisense) [compound 958538]
Yap1 mRNA, % UTC [1]: 101 % UTC
Yap1 mRNA, % UTC [2]: 77 % UTC
Yap1 mRNA, % UTC [3]: 30 % UTC
IC50 [4]: 300 nM

958549 (kT*kG*kT*dA*dG*dA*d[5mC]*dA*d[5mC]*dA*dT*dA*d[5mC]*kT*k[5mC]*kT; antisense) [compound 958549]
Yap1 mRNA, % UTC [13]: 98 % UTC
Yap1 mRNA, % UTC [14]: 78 % UTC
Yap1 mRNA, % UTC [15]: 28 % UTC
IC50 [16]: 300 nM

958555 (kG*k[5mC]*kT*dT*dA*dT*dA*dT*dT*dG*dA*dA*dG*kA*kG*kT; antisense) [compound 958555]
Yap1 mRNA, % UTC [13]: 99 % UTC
Yap1 mRNA, % UTC [14]: 73 % UTC
Yap1 mRNA, % UTC [15]: 13 % UTC
IC50 [16]: 200 nM

958658 (kA*k[5mC]*kA*dG*dT*dA*dT*dA*dA*dT*dA*dT*d[5mC]*k[5mC]*kT*kA; antisense) [compound 958658]
Yap1 mRNA, % UTC [1]: 90 % UTC
Yap1 mRNA, % UTC [2]: 88 % UTC
Yap1 mRNA, % UTC [3]: 29 % UTC
IC50 [4]: 400 nM

958659 (kG*kT*kT*dG*dT*dA*dT*dT*dA*d[5mC]*dT*d[5mC]*dT*k[5mC]*k[5mC]*kA; antisense) [compound 958659]
Yap1 mRNA, % UTC (Table 61, 15.6 nM, A-431 cells 10,000 cells per well, 48 hours): 91 % UTC
Yap1 mRNA, % UTC (Table 61, 62.5 nM, A-431 cells 10,000 cells per well, 48 hours): 68 % UTC
Yap1 mRNA, % UTC (Table 61, 4000.00 nM, A-431 cells 10,000 cells per well, 48 hours): 9 % UTC
IC50 (Table 61, A-431 cells 10,000 cells per well): 100 nM

958547 (k[5mC]*kA*k[5mC]*dA*dT*dA*d[5mC]*dT*d[5mC]*dT*dA*dG*dT*kT*kA*k[5mC]; antisense) [compound 958547]
Yap1 mRNA, % UTC [5]: 98 % UTC
Yap1 mRNA, % UTC [6]: 74 % UTC
Yap1 mRNA, % UTC [7]: 22 % UTC
IC50 [8]: 200 nM

958370 (antisense k[5mC]*kT*kT*dT*dA*dT*d[5mC]*dT*dA*dG*d[5mC]*dT*dT*kG*kG*kT) [compound 958370]
Yap1 mRNA, % UTC [9]: 98 % UTC
Yap1 mRNA, % UTC [10]: 74 % UTC
Yap1 mRNA, % UTC [11]: 22 % UTC
IC50 [12]: 200 nM

958731 (kG*k[5mC]*kT*d[5mC]*dT*dG*dT*d[5mC]*dA*dG*dT*dT*dA*kT*k[5mC]*k[5mC]; antisense) [compound 958731]
Yap1 mRNA, % UTC (Table 57, 15.6 nM, A-431 cells 10,000 cells per well, 48 hours): 85 % UTC
Yap1 mRNA, % UTC (Table 57, 62.5 nM, A-431 cells 10,000 cells per well, 48 hours): 64 % UTC
Yap1 mRNA, % UTC (Table 57, 4000.00 nM, A-431 cells 10,000 cells per well, 48 hours): 19 % UTC
IC50 (Table 57, A-431 cells 10,000 cells per well): 100 nM

958598 (k[5mC]*k[5mC]*k[5mC]*dA*dA*dT*dG*d[5mC]*dT*dA*d[5mC]*d[5mC]*d[5mC]*kA*kA*kT; antisense) [compound 958598]
Yap1 mRNA, % UTC [1]: 93 % UTC
Yap1 mRNA, % UTC [2]: 58 % UTC
Yap1 mRNA, % UTC [3]: 19 % UTC
IC50 [4]: 100 nM
